# Source: patent EP4186514A1, “PHARMACEUTICAL COMPOSITION FOR PREVENTING OR TREATING CHOLANGITIS OR LIVER DISEASE CAUSED BY CHOLANGITIS COMPRISING ADENOSINE DERIVATIVE” (Future Medicine Co., Ltd., priority 2021, dated 2023)
# Legend:
# A1 adenosine receptor = molecular target: T1, A1 adenosine receptor (Homo sapiens, UniProt P30542); experiment: Radioligand binding affinity, A1 adenosine receptor ([3H]CCPA, CHO cells); parameters: % hA1: dose or concentration left out as unconfirmed; settings: for % hA1: percentage inhibition of specific binding of [3H]CCPA; for Ki: nM ± SEM, read-out: Ki(nM) hA1
# T1 construct: expressed in transfected cells; host or cells: CHO cells (ATCC No. CCL-61)
# T1 sequence (P30542 1-326): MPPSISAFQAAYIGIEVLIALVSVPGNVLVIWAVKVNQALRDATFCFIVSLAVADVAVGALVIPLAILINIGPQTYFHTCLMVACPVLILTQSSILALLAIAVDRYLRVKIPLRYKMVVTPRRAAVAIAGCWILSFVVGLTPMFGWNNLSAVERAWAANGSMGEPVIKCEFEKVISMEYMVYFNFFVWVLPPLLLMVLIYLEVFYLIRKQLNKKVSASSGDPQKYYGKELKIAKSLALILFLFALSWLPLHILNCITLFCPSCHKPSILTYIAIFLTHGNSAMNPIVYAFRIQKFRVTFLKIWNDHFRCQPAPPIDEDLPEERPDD
# [1] = tested on: TPA-induced inflammation of the mouse ear; experiment: Anti-inflammatory activity, TPA-induced mouse ear inflammation; format: in vivo, ICR mice; settings: for anti-inflammatory activity: 0.5% in acetone, 20 µl, FIG. 11 (Exp. Ex. 12)
# Method: The adenosine derivatives of the present invention were examined for anti-inflammatory activity in the following animal test. Seven-week-old male ICR mice were treated with TPA (12-O-tetradecanoylphorbol-13-acetate, 20 µl) in the right ear. […] Hydrocortisone was used at the same concentration as a control.
# 6 hrs after treatment with TPA, the mice were secondarily treated with the adenosine derivatives of the present invention. 24 hrs after TPA treatment, test animals were euthanized using a cervical dislocation method. Samples were obtained from the right ear using a 6 mm diameter punch. The activity was observed by measuring the ear sample using a microbalance. Percentages of inhibition were calculated using the following Equation 1. The compositions and amounts used in these experiments are summarized in Tables 14 to 17 and the anti-inflammatory activities thereof are shown in FIGS. 10 to 13. % Inhibition = (1−Rt.Ear(Test−Nontreated))/(Rt.Ear(TPAonly−Nontreated)) [formula]
# A3 adenosine receptor = molecular target: T2, A3 adenosine receptor (Homo sapiens, UniProt P0DMS8); experiment: Radioligand binding affinity, A3 adenosine receptor ([125I]AB-MECA, CHO cells); parameters: % hA3: dose or concentration left out as unconfirmed; settings: for Ki: nM ± SEM, read-out: Ki(nM) hA3
# T2 construct: expressed in transfected cells; host or cells: CHO cells (ATCC No. CCL-61)
# T2 sequence (P0DMS8 1-318): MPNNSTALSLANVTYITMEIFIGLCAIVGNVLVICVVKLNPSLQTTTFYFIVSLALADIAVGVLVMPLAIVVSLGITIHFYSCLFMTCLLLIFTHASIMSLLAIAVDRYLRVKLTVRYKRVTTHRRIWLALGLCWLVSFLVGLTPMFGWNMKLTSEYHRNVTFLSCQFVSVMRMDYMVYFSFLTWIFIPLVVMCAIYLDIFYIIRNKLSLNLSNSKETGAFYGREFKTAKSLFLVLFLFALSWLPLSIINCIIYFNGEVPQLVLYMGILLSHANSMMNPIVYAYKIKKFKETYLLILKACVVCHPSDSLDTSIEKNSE
# A2A adenosine receptor = molecular target: T3, A2A adenosine receptor (Homo sapiens, UniProt P29274); experiment: Radioligand binding affinity, A2A adenosine receptor ([3H]CGS-21680, HEK 293 cell); settings: for % hA2A: percentage inhibition of specific binding of 10 µM; for Ki: nM ± SEM, read-out: Ki(nM) hA2A
# T3 construct: expressed in transfected cells; host or cells: HEK 293 cell
# T3 sequence (P29274 whole entry): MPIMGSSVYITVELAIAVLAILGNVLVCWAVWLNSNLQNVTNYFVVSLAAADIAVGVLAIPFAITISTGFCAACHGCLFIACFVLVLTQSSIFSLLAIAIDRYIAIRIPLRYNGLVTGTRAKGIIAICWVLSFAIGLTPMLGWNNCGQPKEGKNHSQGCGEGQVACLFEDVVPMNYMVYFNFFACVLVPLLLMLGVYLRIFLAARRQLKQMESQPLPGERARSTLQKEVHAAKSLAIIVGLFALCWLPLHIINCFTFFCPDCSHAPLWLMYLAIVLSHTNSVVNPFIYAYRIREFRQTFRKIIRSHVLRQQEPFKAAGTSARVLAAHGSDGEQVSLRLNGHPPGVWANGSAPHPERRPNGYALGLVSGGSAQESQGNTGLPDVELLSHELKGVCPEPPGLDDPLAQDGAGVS
# [2] = 0.5% in a mixture of DMSO and acetone (1:9), FIG. 13 (Exp. Ex. 14)
# [3] = 0.5% in a mixture of distilled water and acetone (1:4), FIG. 12 (Exp. Ex. 13)
Compound,% hA1 (A1 adenosine receptor) [%],Ki (A3 adenosine receptor) [nM],% hA2A (A2A adenosine receptor) [%],Ki (A2A adenosine receptor) [nM],Ki (A1 adenosine receptor) [nM],% hA3 (A3 adenosine receptor; percentage inhibition of specific binding) [%],"percentages of inflammation inhibition [1, 2] [%]","percentages of inflammation inhibition [1, 3] [%]",anti-inflammatory activity [1]
"O[C@@H]1[C@H](O)CS[C@H]1n1cnc2c(NCc3ccccc3Cl)nc(Cl)nc21 [Example 5, (2R,3R,4S)-2-(2-chloro-6-(2-chlorobenzylamino)-9H-purin-9-yl)tetrahydrothiophen-3,4-diol]",12.8,25.8 ± 6.3,–,1600 ± 135,–,–,–,17,–
"O[C@@H]1[C@H](O)CS[C@H]1n1cnc2c(NCc3cccc(Cl)c3)ncnc21 [Example 12, (2R,3R,4S)-2-(6-(3-chlorobenzylamino)-9H-purin-9-yl)tetrahydrothiophen-3,4-diol]",–,1.5 ± 0.4,–,440 ± 110,860 ± 210,–,–,–,–
"O[C@@H]1[C@H](O)CS[C@H]1n1cnc2c(NCc3cccc4ccccc34)nc(Cl)nc21 [Example 8, (2R,3R,4S)-2-(2-chloro-6-(naphthalen-1-ylmethylamino)-9H-purin-9-yl)tetrahydrothiophen-3,4-diol]",22.0,24.8 ± 8.1,-8.3,–,–,–,–,–,–
"COc1ccccc1CNc1nc(Cl)nc2c1ncn2[C@@H]1SC[C@@H](O)[C@H]1O [Example 7, (2R,3R,4S)-2-(2-chloro-6-(2-methoxybenzylamino)-9H-purin-9-yl)tetrahydrothiophen-3,4-diol]",9.4,19.9 ± 7.1,17.5,–,–,–,–,53,–
"O[C@@H]1[C@H](O)CS[C@H]1n1cnc2c(NCc3cccc(F)c3)ncnc21 [Example 11, (2R,3R,4S)-2-(6-(3-fluorobenzylamino)-9H-purin-9-yl)tetrahydrothiophen-3,4-diol]",–,7.3 ± 0.6,–,1260 ± 330,1430 ± 420,–,–,–,–
"O=C(O)c1cccc(CNc2nc(Cl)nc3c2ncn3[C@@H]2SC[C@@H](O)[C@H]2O)c1 [Example 9, 3-((2-chloro-9-((2R,3R,4S)-3,4-dihydroxytetrahydrothiophen-2-yl)-9H-purine-6-ylamino)methyl)benzoic acid]",13.1,–,-0.18,–,–,41.5,–,–,–
"CNc1nc(Cl)nc2c1ncn2[C@@H]1SC[C@H](O)[C@@H]1O [Example 10, 2-(2-chloro-6-methylamino-purin-9-yl)tetrahydrothiophen-3,4-diol]",55.4 ± 1.8,3.69 ± 0.25,45.0 ± 1.4,–,–,–,–,–,–

# Now from value to molecule, other results behind:
% hA1 (A1 adenosine receptor) [%],Ki (A3 adenosine receptor) [nM],% hA2A (A2A adenosine receptor) [%],Ki (A2A adenosine receptor) [nM],Ki (A1 adenosine receptor) [nM],% hA3 (A3 adenosine receptor; percentage inhibition of specific binding) [%],Compound,"percentages of inflammation inhibition [1, 2] [%]","percentages of inflammation inhibition [1, 3] [%]",anti-inflammatory activity [1]
39.8,13 ± 6.9,22.8,–,–,–,"O[C@@H]1[C@H](O)CO[C@H]1n1cnc2c(NCc3cccc(Br)c3)nc(Cl)nc21 [Example 15, (2R,3R,4R)-2-(6-(3-bromobenzylamino)-2-chloro-9H-purin-9-yl)tetrahydrofuran-3,4-diol]",59,–,–
34.2,8.99 ± 5.17,18.4,–,–,–,"O[C@@H]1[C@H](O)CS[C@H]1n1cnc2c(NCc3cccc(Br)c3)nc(Cl)nc21 [Example 3, (2R,3R,4S)-2-(6-(3-bromobenzylamino)-2-chloro-9H-purin-9-yl)tetrahydrothiophen-3,4-diol]",–,–,–
23.8,12.7 ± 3.7,–,4020 ± 1750,–,–,"COc1ccc(Cl)cc1CNc1nc(Cl)nc2c1ncn2[C@@H]1SC[C@@H](O)[C@H]1O [Example 6, (2R,3R,4S)-2-(2-chloro-6-(5-chloro-2-methoxybenzylamino)-9H-purin-9-yl)tetrahydrothiophen-3,4-diol]",–,34,increased
37.7,42.9 ± 8.9,28.6,–,–,–,"O[C@@H]1[C@H](O)CO[C@H]1n1cnc2c(NCc3cccc(I)c3)nc(Cl)nc21 [Example 16, (2R,3R,4R)-2-(2-chloro-6-(3-iodobenzylamino)-9H-purin-9-yl)tetrahydrofuran-3,4-diol]",79,–,–
–,6.8 ± 3.4,–,420 ± 32,790 ± 190,–,"O[C@@H]1[C@H](O)CS[C@H]1n1cnc2c(NCc3cccc(Br)c3)ncnc21 [Example 13, (2R,3R,4S)-2-(6-(3-bromobenzylamino)-9H-purin-9-yl)tetrahydrothiophen-3,4-diol]",–,–,–
19.8,7.4 ± 1.3,47.6,–,–,–,"O[C@@H]1[C@H](O)CS[C@H]1n1cnc2c(NCc3cccc(F)c3)nc(Cl)nc21 [Example 1, (2R,3R,4S)-2-(2-chloro-6-(3-fluorobenzylamino)-9H-purin-9-yl)tetrahydrothiophen-3,4-diol]",–,–,increased
